Test results published in patent US10874743B2, “IRAK degraders and uses thereof” (Kymera Therapeutics, Inc., priority 2017, dated 2020).

How the values were obtained:
Type in all cases: cell-based
[1] = system: OCI-LY10 cells; assay: OCI-LY-10 CTG cell viability assay (EC50); conditions: Homo sapiens, 96 h, CellTiter-Glo cell viability, 4 days incubation, top concentration 10 μM, read-out: OCI-LY10 IRAK4 EC50
Description: A CTG cell viability assay using OCI-LY-10 cells was run to determine compound-mediated cell viability (EC50).
Compound-mediated viability effect on OCI-LY10 was quantitatively determined using the CellTiter-Glo® Luminescent Cell Viability Assay kit from Promega (Catalog number G7570) following manufacturer's recommended procedures. […] Compounds were then added to the assay plate with final top concentration of 10 μM and 1:3 dilution series with total of 9 doses. The final DMSO concentration was normalized to 0.2%. The assay plates were incubated at 37° C. for 4 days under 5% CO2. Then the assay plate was equilibrated at room temperature for 10 minutes. […] The data was then analyzed by software Prism 7.0 from GraphPad and the dose response curves were fit using a three-parameter logistic equation to calculate EC50.

[2] = target: T1, IRAK4 (Homo sapiens, UniProt Q9NWZ3); assay: OCI-LY-10 MSD assay for IRAK4 DC50; design: endogenous in cells; host or cells: OCI-LY10; conditions: OCI-LY10 cells, 4 hr incubation, concentration required to degrade 50% of protein
T1 sequence (Q9NWZ3 1-460): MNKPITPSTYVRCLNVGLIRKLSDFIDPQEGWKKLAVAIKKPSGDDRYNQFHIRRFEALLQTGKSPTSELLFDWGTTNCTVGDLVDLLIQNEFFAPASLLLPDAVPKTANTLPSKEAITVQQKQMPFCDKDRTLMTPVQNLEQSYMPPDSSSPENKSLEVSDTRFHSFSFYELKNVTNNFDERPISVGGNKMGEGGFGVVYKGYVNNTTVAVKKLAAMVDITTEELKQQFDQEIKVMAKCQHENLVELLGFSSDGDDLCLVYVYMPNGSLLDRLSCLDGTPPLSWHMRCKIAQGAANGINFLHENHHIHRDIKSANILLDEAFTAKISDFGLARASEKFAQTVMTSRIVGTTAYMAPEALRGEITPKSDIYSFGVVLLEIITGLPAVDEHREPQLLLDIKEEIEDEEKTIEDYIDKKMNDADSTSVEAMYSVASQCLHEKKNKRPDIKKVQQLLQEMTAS
Outline: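 IRAK4 level was quantified by MSD electrochemiluminescence (anti-IRAK4 capture antibody, rabbit anti-IRAK4 detection antibody) in RIPA lysates of OCI-Ly10 cells. Cells had been treated with compound for 4 hr (8-point, 3-fold serial dilution). Remaining protein versus concentration was fitted to a sigmoidal curve to give DC50.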

[3] = target: T1, IRAK4; assay: OCI-LY-10 degradation assay (western blot, % IRAK4 degraded after 4 hours); design: endogenous in cells; host or cells: OCI-LY10; conditions: OCI-LY10 cells, 4 hours; for OCI-LY10 % IRAK4 Degradation (0.01 uM): 0.01 uM compound; for OCI-LY10 % IRAK4 Degradation (0.1 uM): 0.1 uM compound; for OCI-LY10 % IRAK4 Degradation (1 uM): 1 uM compound
Outline: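 IRAK4 loss after 4 h at 37° C was scored A (>50%), B (>20-50%) or C (<20%) from infrared western blots of RIPA lysates, 20-25 μg protein per lane. Compound was applied at 0.003-10 μM final to OCI-LY10 cells cultured in RPMI-1640 with 20% FBS and 55 μM 2-ME.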

Row | EC50 [1] [nM] | DC50 [2] [nM] | OCI-LY10 % IRAK4 Degradation (0.01 uM) [3] | OCI-LY10 % IRAK4 Degradation (0.1 uM) [3] | OCI-LY10 % IRAK4 Degradation (1 uM) [3] | Structure (SMILES)
1 | 500 to 1000 | – | – | – | – | Cn1c(=O)n(C2CCC(=O)NC2=O)c2cccc(CCCOCCNCc3ccc(-n4cc(NC(=O)c5coc(-c6ccnc(NCC(F)(F)F)c6)n5)c(C(F)F)n4)cc3)c21 (stereo not drawn) [I-533]
2 | 50 to 100 | – | – | – | – | O=C1CCC(n2c3ccc(NCCOCCOCCNCc4ccc(-n5cc(NC(=O)c6coc(-c7ccnc(NCC8CC8)c7)n6)c(C(F)F)n5)cc4)cc3c3cccnc32)C(=O)N1 (stereo not drawn) [I-595]
3 | > 1000 | – | – | – | – | N#Cc1nn(-c2ccc(CNCCOCCOCCCc3ccc4c(c3)oc(=O)n4C3CCC(=O)NC3=O)cc2)cc1NC(=O)c1coc(-c2ccnc(NCC3CC3)c2)n1 (stereo not drawn) [I-538]
4 | – | > 1000 | C (<20% degradation) | C (<20% degradation) | C (<20% degradation) | CC(C)(C)[C@H](NC(=O)COCCOCCOCCNc1cccc2c1C(=O)N(C1CCC(=O)NC1=O)C2=O)C(=O)N1C[C@H](O)C[C@H]1C(=O)NCc1ccc(-n2cc(NC(=O)c3coc(-c4ccnc(NCC5CC5)c4)n3)c(C(F)F)n2)cc1 (stereo partly drawn) [I-284]
5 | – | > 1000 | C (<20% degradation) | B (>20-50% degradation) | C (<20% degradation) | O=C1CCC(N2C(=O)c3cccc(CCCCCN4CCC(n5cc(NC(=O)c6coc(-c7ccnc(NCC8CC8)c7)n6)c(C(F)F)n5)CC4)c3C2=O)C(=O)N1 (stereo not drawn) [I-258]
6 | – | 50 to 100 | C (<20% degradation) | A (>50% degradation) | A (>50% degradation) | CN(CCOCCOCCCc1ccc2c(c1)C(=O)N(C1CCC(=O)NC1=O)C2=O)C(=O)c1ccc(-n2cc(NC(=O)c3coc(-c4ccnc(NCC(F)(F)F)c4)n3)c(C(F)F)n2)cc1 (stereo not drawn) [I-279]
7 | – | 50 to 100 | C (<20% degradation) | A (>50% degradation) | A (>50% degradation) | O=C1CCC(N2C(=O)c3cccc(OCc4cn(CCOCCOCCNCc5ccc(-n6cc(NC(=O)c7coc(-c8ccnc(NCC9CC9)c8)n7)c(C(F)F)n6)cc5)nn4)c3C2=O)C(=O)N1 (stereo not drawn) [I-344]
8 | – | < 50 | A (>50% degradation) | A (>50% degradation) | A (>50% degradation) | NC(=O)c1nn(-c2ccc(C(=O)NCC3CCCCN3CCOCCNc3cccc4c3C(=O)N(C3CCC(=O)NC3=O)C4=O)cc2)cc1NC(=O)c1coc(-c2ccnc(NCC(F)(F)F)c2)n1 (stereo not drawn) [I-219]

The remaining lines, values behind:

Row | Structure (SMILES) | EC50 [1] [nM] | DC50 [2] [nM] | OCI-LY10 % IRAK4 Degradation (0.01 uM) [3] | OCI-LY10 % IRAK4 Degradation (0.1 uM) [3] | OCI-LY10 % IRAK4 Degradation (1 uM) [3]
9 | CN1C(=O)CCC(n2c(=O)n(C)c3c(CCCOCCOCCNCc4ccc(-n5cc(NC(=O)c6coc(-c7ccnc(NCC(F)(F)F)c7)n6)c(C(N)=O)n5)cc4)cccc32)C1=O (stereo not drawn) [I-544] | > 1000 | – | – | – | –
10 | Cn1cc(NC(=O)c2cnn3ccc(N4CCN(C(=O)COCCOCCOCCOCCNc5cccc6c5C(=O)N(C5CCC(=O)NC5=O)C6=O)CC4)nc23)c(C(F)F)n1 (stereo not drawn) [I-467] | > 1000 | – | – | – | –
11 | Cn1cc(NC(=O)c2cnn3ccc(N4CCN(C(=O)COCCOCCCc5ccc6c(c5)n(C)c(=O)n6C5CCC(=O)NC5=O)CC4)nc23)c(C(F)F)n1 (stereo not drawn) [I-469] | > 1000 | – | – | – | –
12 | CN(Cc1ccc(-n2cc(NC(=O)c3coc(-c4ccnc(NCC5CC5)c4)n3)c(C(F)F)n2)cc1)C[C@H]1CN(CCCc2ccc3c(c2)n(C)c(=O)n3C2CCC(=O)NC2=O)CCO1 (stereo partly drawn) [I-598] | < 50 | – | – | – | –
13 | Cn1c(=O)n(C2CCC(=O)NC2=O)c2ccc(CCCN3CCO[C@@H](CCNCc4ccc(-n5cc(NC(=O)c6coc(-c7ccnc(NCC(F)(F)F)c7)n6)c(C(N)=O)n5)cc4)C3)cc21 (stereo partly drawn) [I-575] | 100 to 500 | – | – | – | –
14 | Cc1ncsc1-c1ccc(CNC(=O)[C@@H]2C[C@@H](O)CN2C(=O)[C@@H](NC(=O)COCCOCCOCC(=O)N2CCN(c3ccn4ncc(C(=O)Nc5cn(C)nc5C(F)F)c4n3)CC2)C(C)(C)C)cc1 [I-485] | > 1000 | – | – | – | –
15 | O=C1CCC(N2C(=O)c3cccc(CCCNC(=O)c4ccc(-n5cc(NC(=O)c6coc(-c7ccncc7)n6)c(C(F)F)n5)cc4)c3C2=O)C(=O)N1 (stereo not drawn) [I-255] | – | > 1000 | C (<20% degradation) | C (<20% degradation) | C (<20% degradation)
